From US7855200B2, “Method for treatment of gastric ulcers and ulcers induced by aspirin” (Council of Scientific and Industrial Research, priority 2006, dated 2010)

Tests used:
Type in all cases: in vivo, albino rats
[1] = test system: acetyl salicylic acid induced gastric lesions; assay: Acetyl salicylic acid (aspirin) induced gastric ulcer; parameters: Ulcer index Mean(SE): scale not given here; details: rats, aspirin 200 mg/kg
Procedure: Stress induced gastric ulceration The commercially available drug ranitidine (sigma), Omeprazole (sigma) and sucralfate (Merck) were used as reference standard in experimental models. The Tween-80 (SD fine chemicals) was used as vehicle for the administration of the drug, which is used as control. Antiulcer activity of the compounds under taken was studied. The animals were divided into 20 groups of 6 animals each. Group 1 received the vehicle Tween 80 (1%, 1 ml) which served as the control. Group 2 received ranitidine at a dose of 50-mg/kg body weight, which served as standard for comparison. Group 3 to 20 at a dose of 25 mg/kg body weight. Rats were administered per orally with a daily dose of the compounds and the drug ranitidine for a period of five days and then fasted for 24 hours. The […] acetyl salicylic acid (aspirin) at a dose of 200 mg/kg body weight was administered as a suspension in tween-80 (1%), 30 min after the drug administration each day. All drugs were administered orally on the 6th day after the last administration of the drugs and the ulcer inducing agent aspirin, the rats were killed by cervical dislocation and their stomach were opened along the greater curvature and washed with luke warm saline and examined under a dissecting microscope. The ulcer index was calculated for each stomach. […] The antiulcer activity of the compounds was studied. The animals were divided into 19 groups of 6 animals each. Group 1 received the vehicle Tween 80 (1%, 1 ml) which served as the control. Group 2 received ranitidine at a dose of 50-mg/kg-body weight, which served as standard for comparison. […] Rats were administered per orally with a daily dose of the compounds and the drug ranitidine to respective groups for a period of five days and then fasted for 24 hours. The […] acetyl salicylic acid (aspirin) at a dose of 200 mg/kg body weight was administered as a suspension in tween-80 (1%), 30 min after the drug administration each day. All drugs were administered orally on ht […] day after the last administration of the drugs and the ulcer inducing agent aspirin, the rats were killed by cervical dislocation and their stomach were opened along the greater curvature and washed with luke warm saline and examined under a dissecting microscope.

[2] = test system: gastric ulceration in cold restraint rats; assay: Cold restraint (stress) induced ulcers; parameters: Ulcer index Mean(SE): scale not given here; details: rats, 4° C. for 2 hours
Description: (§1) The compounds taken under study for antigastric ulcer screening by four different models were selected using experimental albino rats: • 1. Aspirin induced gastric ulceration • 2. Pylorus ligated gastric ulceration • 3. Ethanol induced gastric ulceration • 4. Stress induced gastric ulceration
(§2) The commercially available drug ranitidine (sigma), Omeprazole (sigma) and sucralfate (Merck) were used as reference standard in experimental models. The Tween-80 (SD fine chemicals) was used as vehicle for the administration of the drug, which is used as control.
(§3) The antiulcer activity of the compounds was studied. The animals were divided into 21 groups of 7 animals each. Group 1 received the vehicle Tween 80 (1%, 1 ml) which served as the control. Group 2 received ranitidine at a dose of 50-mg/kg body weight, which served as standard for comparison. Group 3 to 21 at a dose of 25 mg/kg body weight. Animals were deprived of food 48 hours before the experiment. The water was allowed for free access. Rats were administered per orally with compounds and the drug ranitidine. The water was removed 1 hour before restraint and exposed to a temperature of 4° C. for 2 hours. Two hours after stress, the animals were sacrificed. The stressed animals were opened along the greater curvature and the severity of gastric ulcer was assessed in terms of mean ulcer index. 2.
as §3, with “8” for “21”, “6” for “7”, “50, 25, 15, 10 and 5” for “25”, “weight respectively.” for “weight.”, “index.” for “index. 2.”

[3] = test system: ethanol induced gastric ulcers; assay: Ethanol induced ulcers; details: rats, ethanol challenge; for Acidity Total mEg / Gastric content / pH: 4 hours after pylorus ligation
Procedure: Stress induced gastric ulceration The commercially available drug ranitidine (sigma), Omeprazole (sigma) and sucralfate (Merck) were used as reference standard in experimental models. The Tween-80 (SD fine chemicals) was used as vehicle for the administration of the drug, which is used as control. The animals were divided into 22 groups of 6 animals each. Animals were deprived of food for 48 hours but had free access to water. Group 1 received the vehicle Tween 80 (1%, 1 ml) which served as the control. Group 2 received ranitidine at a dose of 50-mg/kg-body weight, which served as standard for comparison. Group 3 to received Omeprazole at a dose of 30-mg/kg body weight, which served as standard for comparison. Group 4 received sucralfate at a dose of 400-mg/kg body weight, which served as standard for comparison. Group 5 to 22 received at a dose of 25 mg/kg body weight. Lesions were induced 1 hour after ethanol challenge animals. The stomach was ligated at the pylorus under ether anesthesia. 4 hours after pylorus ligation, the animals were sacrificed and the contents drained and centrifuges at 5000 rpm for 10 minutes. Aliquots of supernatant were used for determination of total acid by titrating with 0.01N NaOH using topfers reagent and phenolphthalein indicators. […] The animals were divided into 9 groups of 6 animals each. Animals were deprived of food for 48 hours but had free access to water. Group 1 received the vehicle Tween 80 (1%, 1 ml) which served as the control. Group 2 received ranitidine at a dose of 50-mg/kg-body weight, which served as standard for comparison. Group 3 to received Omeprazole at a dose of 30-mg/kg body weight, which served as standard for comparison. Group 4 received sucralfate at a dose of 400-mg/kg body weight, which served as standard for comparison. […] Lesions were induced 1 hour after ethanol challenge animals. The stomach was ligated at the pylorus under ether anesthesia. 4 hours after pylorus ligation, the animals were sacrificed and the contents drained and centrifuges at 5000 rpm for 10 minutes. Aliquots of supernatant were used for determination of total acid by titrating with 0.01N NaOH using topfers reagent and phenolphthalein indicators.

[4] = test system: Pylorus ligated rats; assay: Pylorus ligated ulcers; details: 4 hours after pylorus ligation
Description: as §1, §2
The animals were divided into 19 groups of 6 animals each. Animals were deprived of food for 48 hours but had free access to water. Group 1 received the vehicle Tween 80 (1%, 1 ml) which served as the control. Group 2 received ranitidine at a dose of 50-mg/kg-body weight, which served as standard for comparison. […] After one hour of administration of drug the stomach was ligated at the pylorus under ether anesthesia. 4 hours after pylorus ligation, the animals were sacrificed and the contents drained and centrifuges at 5000 rpm for 10 minutes. Aliquots of supernatant were used for determination of total acid by titrating with 0.01N NaOH using topfers reagent and phenolphthalein indicators. 4.
The animals were divided into 7 groups of 6 animals each. Animals were deprived of food for 48 hours but had free access to water. Group 1 received the vehicle Tween 80 (1%, 1 ml) which served as the control. Group 2 received ranitidine at a dose of 50-mg/kg-body weight, which served as standard for comparison. Group 3 to 7 received at a dose of 50, 25, 15, 10 and 5 mg/kg body weight respectively. After one hour of administration of drug the stomach was ligated at the pylorus under ether anesthesia. 4 hours after pylorus ligation, the animals were sacrificed and the contents drained and centrifuges at 5000 rpm for 10 minutes. Aliquots of supernatant were used for determination of total acid by titrating with 0.01N NaOH using topfers reagent and phenolphthalein indicators.

[5] = test system: gastric ulcers induced by aspirin, ethanol, stress and pylorus ligation; assay: Antigastric ulcer screening by four different models (statements in words); details: summary statement
Description: as §1, §2

[6] = 25 mg/kg per orally daily for five days
[7] = Rattus norvegicus, po, 120 h, 25 mg/kg per orally daily for five days
[8] = Rattus norvegicus, po, 25 mg/kg per orally

Structure (SMILES)	Inhibition % [1, 6] [%]	Ulcer index Mean(SE) [1, 6]	Inhibition % ([2]; 25 mg/kg per orally) [%]	Ulcer index Mean(SE) ([2]; 25 mg/kg per orally)	Inhibition % ([3]; 25 mg/kg) [%]	Ulcer index Mean(SE) ([3]; 25 mg/kg)	Acidity Total mEg ([3]; 25 mg/kg)	Gastric content ([3]; 25 mg/kg)	pH ([3]; 25 mg/kg)	Acidity Total mEg ([4]; 25 mg/kg)	Gastric content ([4]; 25 mg/kg)	Inhibition % ([4]; 25 mg/kg) [%]	Ulcer index Mean(SE) ([4]; 25 mg/kg)	pH ([4]; 25 mg/kg)	inhibition at 25 mg/kg [1, 7] [%]	inhibition at 25 mg/kg [2, 8] [%]	inhibition at 25 mg/kg ([3]; Rattus norvegicus, 25 mg/kg) [%]	also measured
COC(=O)C1OC(Oc2ccc3c(=O)cc(-c4ccccc4)oc3c2)C(O)C(O)C1O (centres unmarked) [CGL, 3,4,5-trihydroxy-6-(4-oxo-2-phenyl-4-H-chromen-7-yoloxy) tetrahydro-pyran-2-carboxylicacid methyl ester]	70.46	13.33	50.22	20.00	62.50	25.00 (±2.88)	39.00 (±1.52) mEg	4.60 (±0.20)	3.91 (±0.21)	40.00 (±1.15) m Eg	4.83 (±0.44)	60.17	19.96 (±6.66)	3.08 (±0.22)				antiulcer activity (in words) [5]: very good activity
COc1c(OC2OC(CO)C(O)C(O)C2O)cc2oc(-c3ccccc3)cc(=O)c2c1O (centres unmarked) [OA-G, 5-Hydroxy-6-methoxy-2-phenyl-7-(3,4,5-trihydroxy-6-hydroxyrnethyl-tetrahydro-pyran-2-yloxy)-chromen-4-one]	32.05	30.66	19.52	32.33	20.00	53.33 (±6.66)	36.66 (±0.88) mEg	4.33 (±0.11)	4.31 (±0.11)	41.66 (±1.66) m Eg		30.16	35.00 (±2.88)	3.20 (±0.15)				
CCCCCCCCCCCCCCCCC(=O)Oc1cc2oc(-c3ccccc3)cc(=O)c2c(O)c1OC [ORC-16, Heptadecanoic acid 5-hydroxy-6-methoxy-4-oxo-2-phenyl-4H-chromen-7-yl ester]		39.13		35.00		51.50 (±1.05)	43.20 (±3.86) mEg	3.7 (±0.10)	3.58 (±0.23)	42.20 (±2.20) m Eg	1.92 (±0.20)		43.33 (±2.10)	3.66 (±0.20)	13.3	14	22.8	
COc1c(OC(=O)c2ccc(C)cc2)cc2oc(-c3ccccc3)cc(=O)c2c1O [ORPM-1, 4-methyl-benzoic acid 5-hydroxy-6-methoxy-4-oxo-2-phenyl-4-H-chromen-7-yl ester]	16.91	37.49	24.23	22.85	28.75	47.50 (±1.11)	44.24 (±0.62) mEg	3.0 (±1.50)	3.50 (±0.18)	45.24 (±0.30) m Eg	2.20 (±0.22)	16.87	41.66 (±2.78)	3.20 (±0.25)				
COc1c(O)cc2oc(-c3ccccc3)cc(=O)c2c1O [Oroxylin A, 5,7-Dihydroxy-6-methoxy-2-phenylchromen-4-one]		42.50		38.57		48.33 (±3.33)	48.24 (±2.84) mEg	4.0 (±0.45)	3.19 (±0.73)	55.24 (±2.40) m Eg	2.30 (±0.42)		50.80 (±2.00)	2.74 (±0.24)	5.81	5.26	27.5	inhibition at 25 mg/kg ([4]; Rattus norvegicus, 25 mg/kg): 0%
CNC(=C[N+](=O)[O-])NCCSCc1ccc(CN(C)C)o1 [Ranitidine, ranitidine, reference compound]																		inhibition at 50 mg/kg ([1]; Rattus norvegicus, po, 120 h, 50 mg/kg per orally daily for five days): 74.2%; Ulcer index Mean(SE) ([1]; 50 mg/kg per orally daily for five days): 11.66; inhibition at 50 mg/kg ([2]; Rattus norvegicus, po, 50 mg/kg per orally): 78.8%; Ulcer index Mean(SE) ([2]; 50 mg/kg per orally): 08.62; inhibition at 50 mg/kg ([3]; Rattus norvegicus, 50 mg/kg): 61.3%; Ulcer index Mean(SE) ([3]; 50 mg/kg): 25.83 (±2.22); Acidity Total mEg ([3]; 50 mg/kg): 26.74 (±1.54) mEg; Gastric content ([3]; 50 mg/kg): 5.0 (±0.48); pH ([3]; 50 mg/kg): 4.96 (±0.13); Acidity Total mEg ([4]; 50 mg/kg): 31.8 (±1.91) m Eg; Gastric content ([4]; 50 mg/kg): 1.82 (±0.44); Ulcer index Mean(SE) ([4]; 50 mg/kg): 10.83 (±3.21); pH ([4]; 50 mg/kg): 4.75 (±0.22); inhibition at 50 mg/kg ([4]; Rattus norvegicus, 50 mg/kg): 78.4%
